According to paper PMC7504725, “Automated Synthesis of Fluorine-18 Labeled CXCR4 Ligand via the Conjugation with Nicotinic Acid N-Hydroxysuccinimide Ester (6-[^18F]SFPy)” (Molecules, 2020):
Where two headings read alike, the source gives them in different places.

Key:
CXCR4 = test system: CXCR4; design: method as in earlier work; details: previously reported, ref [24],[31],[48],[49],[50],[51] (collective), cited from earlier work
HIV = details: 4-fluorobenzoyl group introduced on T140-based pharmacophore; ref [30]; cited from earlier work
Text: Numerous truncated peptide analogs that mimic the function of CXCL12 have been reported. Tamamura et al. described the synthesis of novel 14-amino acid peptide inhibitors (T134, T140) based on the structure of their previously reported 18-amino acid peptide, T22, for inhibitory activity against HIV-1 entry. […] However, due to the complex and time-consuming radiolabeling procedure, they developed another analog, (Al[^18F]NOTA-T140), using the Al-F me ...

[1] = Hydrolysis of 6-[^18F]SFPy to 6-[^18F]fluoronicotinic acid (HPLC); assay type: physicochemical; details: room temperature, 4h post radiolabeling; HPLC method B (Vydac C-4), radio detector
Experimental: Figure 2 HPLC analysis (method B) of 6-[^18F]SFPy (A) Crude reaction mixture; (B) Crude reaction mixture co-injected with the non-radioactive standard; (C) Pure; (D) Pure co-injected with the non-radioactive standard; (E) After 4h of labeling at room temperature co-injected with the non-radioactive standard, 6-fluoronicotinic acid. Solid line, in-line radio detector; dotted line, UV detector at 254 nm. Retention time (min): 6-[^18F]SFPy, 4.0; compound 4, 4.1; 6-[^18F]fluoronicotinic acid, 2.8.
Method B (HPLC conditions for analysis): Vydac C-4 (2) column (4.6 × 150 mm, 5 µ), mobile phase: 15–22% B in 10 min; B = acetonitrile (0.1% TFA), A = Water (0.1% TFA), flow rate of 1 mL/min; tR = ~8 min.

red blood cells (RBCs) = details: blocked by non-radioactive standard 4-FBz-T140 peptide; ref [31]; cited from earlier work
Text: (§1) However, due to the complex and time-consuming radiolabeling procedure, they developed another analog, (Al[^18F]NOTA-T140), using the Al-F me ...

CXCR4 positive tumors = details: PET, xenograft mouse model, RBC binding blocked with non-radioactive 4-FBz-T140, ref [31]; cited from earlier work
Text: as §1

4-fluorobenzoyl-TN14003 [4-FBz-T140]
IC50 (CXCR4; first of two values printed for this analog): 0.99 nM
IC50 (CXCR4; second of two values printed for this analog): 1.75 nM
anti-HIV activity (in words) (HIV): enhancement of anti-HIV activity

O=C(ON1C(=O)CCC1=O)c1ccc([18F])nc1 [6-[^18F]SFPy]
conversion to 6-[^18F]fluoronicotinic acid (slow hydrolysis) [1]: 15%

4-[^18F]fluorobenzoyl-TN14003 [4-[^18F]FBz-T140]
binding to red blood cells (in words) (red blood cells (RBCs)): elevated binding
tumor-to-background ratios (in words) (CXCR4 positive tumors): high tumor-to-background ratios
